Measurements from patent US20240180849A1, “IMMUNOFUNCTIONAL CARRIER, METHODS OF USES, AND COMPOSITION MATTERS AS AN ANTITUMOR IMMUNOTHERAPY” (priority 2021, published 2024).

How the values were obtained:
splenocytes = experiment: Cytotoxicity, propidium iodide staining; assay type: cell-based, mouse; conditions: at ≤PTX 2 μg/mL (and 2E′ 10 μg/mL)
Procedure: The spleen was collected from healthy or tumor-bearing mice to isolate splenocytes. The collected spleens were cut into pieces and filtered through 70 μm and 40 μm cell strainers sequentially to obtain a single-cell suspension. The cell suspension was incubated with 1 mL ammonium-chloride-potassium (ACK) lysis buffer for 3 min to remove red blood cells.

BMDCs = experiment: Cytotoxicity, propidium iodide staining; assay type: cell-based, mouse; conditions: at ≤PTX 2 μg/mL (and 2E′ 10 μg/mL)
Procedure: (§1) Bone marrow-derived dendritic cells (BMDCs) and bone marrow-derived macrophages (BMDMs) were differentiated from mouse bone marrow cells. The bone marrow was collected from the femur of female Balb/c or male C57BL/6 mice (7 weeks old), pipetted several times, and passed through a 100 and 40 μm cell strainer to obtain single-cell suspension. The cells were collected by centrifugation at 500 ref for 8 min, treated with ACK lysis buffer, rinsed, and cultured in Alpha minimum essential medium (MEM-Alpha, ribonucleosides, deoxyribonucleosides, 4 mM L-glutamine, 1 mM sodium pyruvate) supplemented with 100 units/mL penicillin, 100 μg/mL streptomycin, […] β-mercaptoethanol, 20 ng/ml murine GM-CSF and 20% fetal bovine serum. After 7 days, floating or loosely adherent cells were collected by centrifugation and identified as BMDC by APC anti-mouse CD11c antibody labeling. Adherent cells were identified as BMDM by FITC anti-mouse F4/80 antibody labeling.

TLR-4 = biological target: T1, TLR-4 (Homo sapiens, UniProt O00206); experiment: TLR-4 activation assay, THP1-XBlue-MD2-CD14 reporter cells (SEAP); assay type: cell-based; conditions: at comparable concentrations
T1 construct: host or cells: THP1-XBlue-MD2-CD14 cells
Procedure: (§2) TLR-5 activation was tested with HEK-Blue™ mTLR5 Cells, TLR-5 reporter cells (Invitrogen, Carlsbad, CA). The TLR-4 reporter cells were plated in a 96 well plate at a density of 100,000 cells per well in RPMI medium. The TLR-5 reporter cells were plated in a 96 well plate with a density of 25,000 cells per well in HEK-Blue™ Detection medium. […] The supernatant was collected for secreted embryonic alkaline phosphatase (SEAP) assay. The absorbance of SEAP was measured at 620 nm.

B16F10 cells = conditions: 24 h incubation
Procedure: CT26 cells, B16F10 cells, BMDC, or splenocytes were seeded in a 96 well plate at a density of 8,000 cells per well (CT26, B16F10) or 15,000 cells per well (BMBCs, splenocytes). After 24 h incubation, the cell culture medium was replaced with fresh complete medium containing 2E, PEI, 2E′/PTX or 2E′/PTX/siPD-L1 treatments in different concentrations. After incubation for another 24 h, the cell cytotoxicity was measured by the MTT assay (CT26, B16F10) or propidium iodide (PI) staining (BMDC, splenocytes). For the MTT assay, the treatments were replaced with 100 μL of fresh complete medium and 15 μL of 5 mg/mL MTT solution. After 4 h incubation, 100 μL of stop/solubilization solution was added to the cells and incubated overnight. The absorbance of dissolved formazan was read by the SpectraMax M3 microplate reader (Molecular Devices, Sunnyvale, CA) at 560 nm. For PI staining, the treatments were removed and cells were rinsed with PBS, collected, and resuspended in 100 μL of cell staining buffer. Five microliters (40 ng) of PI staining solution was added to each sample immediately before the analysis by the BD Accuri C6 Flow Cytometer. The combination index (CI) was determined by Compusyn (Combosyn, Inc., Paramus, NJ). The values of CI<1, CI=1, and CI>1 represent synergy, additivity, and antagonism, respectively^53.

CT26 tumors [1] = experiment: Antitumor effects in Balb/c mice with bilateral CT26 tumors; assay type: in vivo; conditions: single IT injection, 1 mg 2E′ (+0.2 mg PTX) per mouse
Procedure: Tumors were established in both flanks simultaneously by subcutaneous inoculation. 1×10^6 of CT26 cells were innoculated in the flank of the right hind limb, and 3×10^5 of CT26 cells in the left flank of the same mouse. […] The sizes of the treated tumor and the non-treated tumor on the left side were measured with a digital caliper every other day, and tumor volumes were calculated as (width^2×length)/2.

BMDCs and BMDMs = experiment: Cytokine production from BMDC and BMDM (ELISA); assay type: cell-based, mouse; conditions: 24 h
Procedure: as §1
After 24 h incubation, the cells were collected, resuspended in staining buffer, incubated with Fc-blocking antibody for 15 min at 4° C., labeled with anti-mouse CD11c, CD86, CD40, and MHC-II antibodies for 20 min at 4° C., and analyzed by the BD Accuri C6 Flow Cytometer. […] After 24 h, the media were analyzed for IL-1β and TNF-α by ELISA (Invitrogen, Carlsbad, CA) according to the manufacturer's protocols.

CT26 cells = experiment: Cytotoxicity, MTT assay; assay type: cell-based, mouse
Procedure: CT26 cells, B16F10 cells, BMDC, or splenocytes were seeded in a 96 well plate at a density of 8,000 cells per well (CT26, B16F10) or 15,000 cells per well (BMBCs, splenocytes). […] After incubation for another 24 h, the cell cytotoxicity was measured by the MTT assay (CT26, B16F10) or propidium iodide (PI) staining (BMDC, splenocytes). […] The values of CI<1, CI=1, and CI>1 represent synergy, additivity, and antagonism, respectively^53.

CT26 and B16F10 cells = experiment: CRT expression in tumor cells; assay type: cell-based, mouse
Procedure: 2×10^5 CT26 or B16F10 cells were seeded in a 6-well plate overnight. […] After 6 h or 24 h, the cells were collected, resuspended in staining buffer, incubated with anti-mouse CD16/32 antibody to block non-specific binding of the immunoglobulin to Fc receptors, and stained with Alexa Fluor 488-conjugated anti-CRT monoclonal antibody (ab196158, Abcam). The cells were incubated with 0.5 μg/mL propodium iodide for 1 min prior to the analysis with the BD Accuri C6 Flow Cytometer. For visualizing CRT exposure, 2×10^5 CT26 or B16F10 cells were seeded in a confocal dish, incubated with different treatments for 24 h, washed, stained in the same manner as above, and fixed with 4% paraformaldehyde. Confocal images of the fixed cells were taken with the Nikon A1R confocal microscope (Nikon America Inc., Melville, NY) after brief staining with 2 μg/mL Hoechst 33342.

CT26 tumors [2] = experiment: Antitumor effects in Balb/c mice with CT26 tumors and delayed rechallenge(s) of live cells; assay type: in vivo
Source text: Tumor growth was monitored as described above. To test whether antitumor immunity was established, the mice surviving with complete tumor remission by 30 days from the treatment were rechallenged with 1×10^5 live CT26 cells on the contralateral flank. The mice resistant to the first rechallenge were challenged again with 2×10^6 live CT26 cells on 60 days from the treatment. In two separate experiments, surviving Balb/c mice were rechallenged once on 6 or 17 days after the treatment.

[3] = tested on: DCs or BMDMs co-cultured with CT26 or B16F10 cells; conditions: PTX-pretreated CT26 or B16F10 cells, with 7 μg/mL 2E′
Procedure: CT26 or B16F10 cancer cells were stained with Cell Tracker Green (Invitrogen, Carlsbad, CA) for 1 h and treated with 5 μg/mL PTX for 24 h. […] The co-cultured cells were collected, resuspended in staining buffer, and analyzed by the BD Accuri C6 Flow Cytometer or BD LSRFortessa Flow Cytometer (San Jose, CA, USA). DCs taking up the PTX-treated cancer cells (cancer cell^+ DC or macrophages) was quantified as the percentage of double-positive cells in Cell-Tracker Deep Red-stained BMDC, JAWSII DC or BMDM, and the phagocytized cancer cells as the percentage of double-positive cells in Cell Tracker Green-stained cancer cells.

TLR-5 = biological target: T2, TLR-5 (Mus musculus, UniProt Q9JLF7); experiment: TLR-5 activation assay, HEK-Blue mTLR5 reporter cells (SEAP); assay type: cell-based; conditions: TLR reporter cell line, colorimetric SEAP
T2 construct: host or cells: HEK-Blue mTLR5 cells
Procedure: as §2

BMDCs and JAWSII DCs = experiment: BMDC and JAWSII DC stimulation (maturation markers, flow cytometry); assay type: cell-based, mouse

T1 sequence (O00206 24-839): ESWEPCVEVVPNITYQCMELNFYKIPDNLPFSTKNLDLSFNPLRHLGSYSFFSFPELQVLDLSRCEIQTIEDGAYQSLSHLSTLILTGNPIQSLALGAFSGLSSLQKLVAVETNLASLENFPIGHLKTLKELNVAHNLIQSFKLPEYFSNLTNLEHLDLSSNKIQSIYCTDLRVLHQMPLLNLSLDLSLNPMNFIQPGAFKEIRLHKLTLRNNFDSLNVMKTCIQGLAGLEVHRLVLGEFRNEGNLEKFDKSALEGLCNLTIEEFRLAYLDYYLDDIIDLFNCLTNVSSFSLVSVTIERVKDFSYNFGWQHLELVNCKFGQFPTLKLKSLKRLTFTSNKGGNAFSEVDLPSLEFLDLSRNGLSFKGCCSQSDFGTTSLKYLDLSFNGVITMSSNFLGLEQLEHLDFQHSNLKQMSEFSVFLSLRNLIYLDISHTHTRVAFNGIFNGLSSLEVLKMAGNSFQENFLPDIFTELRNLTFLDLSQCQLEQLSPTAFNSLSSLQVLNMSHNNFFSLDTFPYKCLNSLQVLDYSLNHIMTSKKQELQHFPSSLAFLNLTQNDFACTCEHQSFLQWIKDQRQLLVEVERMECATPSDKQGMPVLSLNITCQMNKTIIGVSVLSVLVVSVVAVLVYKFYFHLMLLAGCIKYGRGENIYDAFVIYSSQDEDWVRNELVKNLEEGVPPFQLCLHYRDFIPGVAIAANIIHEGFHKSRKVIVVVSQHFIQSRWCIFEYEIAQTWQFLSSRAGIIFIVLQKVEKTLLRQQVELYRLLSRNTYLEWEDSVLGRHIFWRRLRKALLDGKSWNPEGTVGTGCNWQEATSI
T1 sequence (Q9Y6Y9 17-160 partner limits assumed): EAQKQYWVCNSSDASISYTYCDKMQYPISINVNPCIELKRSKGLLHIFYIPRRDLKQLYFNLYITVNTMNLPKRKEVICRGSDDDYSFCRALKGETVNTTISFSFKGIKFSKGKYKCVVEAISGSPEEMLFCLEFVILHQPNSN
T2 sequence (Q9JLF7 27-859): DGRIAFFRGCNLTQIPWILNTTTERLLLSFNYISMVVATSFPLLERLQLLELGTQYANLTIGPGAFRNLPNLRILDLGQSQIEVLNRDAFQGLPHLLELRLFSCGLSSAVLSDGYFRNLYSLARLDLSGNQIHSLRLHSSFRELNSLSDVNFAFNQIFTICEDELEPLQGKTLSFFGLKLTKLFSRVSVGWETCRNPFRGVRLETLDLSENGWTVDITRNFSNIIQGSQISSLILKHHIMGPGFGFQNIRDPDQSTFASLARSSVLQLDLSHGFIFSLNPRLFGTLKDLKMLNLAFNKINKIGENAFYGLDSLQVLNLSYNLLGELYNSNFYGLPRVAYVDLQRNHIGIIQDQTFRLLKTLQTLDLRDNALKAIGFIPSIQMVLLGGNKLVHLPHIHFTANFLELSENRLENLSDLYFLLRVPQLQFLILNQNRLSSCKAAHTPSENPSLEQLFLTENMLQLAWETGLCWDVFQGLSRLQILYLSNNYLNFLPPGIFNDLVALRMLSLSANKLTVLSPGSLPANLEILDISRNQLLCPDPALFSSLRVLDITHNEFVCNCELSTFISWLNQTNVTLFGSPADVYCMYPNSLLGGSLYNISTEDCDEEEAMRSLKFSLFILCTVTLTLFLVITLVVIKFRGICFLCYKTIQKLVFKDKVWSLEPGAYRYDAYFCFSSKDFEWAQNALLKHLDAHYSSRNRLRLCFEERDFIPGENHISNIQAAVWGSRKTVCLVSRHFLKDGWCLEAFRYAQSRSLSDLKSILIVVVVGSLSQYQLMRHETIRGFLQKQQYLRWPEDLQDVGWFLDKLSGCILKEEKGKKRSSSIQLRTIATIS

| TLR-5 signaling (TLR-5) | Compound | cytotoxicity to splenocytes (splenocytes) | cytotoxicity to BMDCs (BMDCs) | TLR-4 signaling (TLR-4) | toxicity to B16F10 cells relative to BMDCs (B16F10 cells) | growth of untreated distant tumors vs D5W (CT26 tumors [1]) | mice with complete regression (CR) of the treated tumors (CT26 tumors [1]) | TNF-α and IL-1β production/secretion (BMDCs and BMDMs) | toxicity to CT26 cells relative to normal splenocytes (CT26 cells) | toxicity to CT26 cells relative to BMDCs (CT26 cells; 24 h incubation) | cell surface calreticulin (CRT) exposure (CT26 and B16F10 cells) | mice with CR (tumor-free) (CT26 tumors [2]; 1 mg 2E′, 0.2 mg/mL PTX, 0.67 mg siRNA, single IT, n=8) | animals with CR of the treated tumors (CT26 tumors [2]; 1.4 mg 2E′ (+0.2 mg PTX) per mouse, single IT) | tumor-free mice in which growth of rechallenged tumor was prevented (CT26 tumors [2]; 1.4 mg 2E′ (+0.2 mg PTX), rechallenge with live CT26 cells day 17) | mice with growth of primary tumors inhibited (CT26 tumors [2]; 2.7 mg 2E′ (+0.4 mg PTX) per mouse, single IT) | mice with no tumor growth of untreated distant tumor (CT26 tumors [2]; 2.7 mg 2E′ (+0.4 mg PTX), distant tumor inoculated 6 days after treatment) | tumor growth after second rechallenge (CT26 tumors [2]; 2×10^6 live CT26 cells) | fractions of DCs or BMDMs taking up cancer cells and of cancer cells taken up [3] | maturation of DCs (BMDCs and JAWSII DCs; BMDCs, JAWSII DCs, 24 h) | immunostimulatory responses relative to PEI (BMDCs and JAWSII DCs; all tests: DC maturation, TNF-α/IL-1β, TLR-5, CRT) |
| --- | --- | --- | --- | --- | --- | --- | --- | --- | --- | --- | --- | --- | --- | --- | --- | --- | --- | --- | --- | --- |
|  | CC(=O)O[C@H]1C(=O)[C@@]2(C)[C@H]([C@H](OC(=O)c3ccccc3)[C@]3(O)C[C@H](OC(=O)[C@H](O)[C@@H](NC(=O)c4ccccc4)c4ccccc4)C(C)=C1C3(C)C)[C@]1(OC(C)=O)CO[C@@H]1C[C@@H]2O [PTX, paclitaxel] | did not show significant cytotoxicity | did not show significant cytotoxicity |  |  |  |  |  |  |  |  |  |  |  |  |  |  |  |  |  |
| activated TLR-5 signaling | Polyethyleneimine-Lithocholic Acid Conjugate [2E′] |  |  | Neither 2E′ nor PEI activated TLR-4 signaling | more toxic to CT26 and B16F10 cells than to bone marrow-derived DCs | the difference was insignificant | 60% | promoted the production | greater toxicity to CT26 cells than normal splenocytes | more toxic to CT26 and B16F10 cells than to bone marrow-derived DCs | exposed the cell surface calreticulin (CRT) | 50% | 40% | one of the two | 57% | 57% | exponential tumor growth in 10-15 days after the second challenge | substantially increased | induced the maturation of BMDCs and JAWSII DCs | induced greater responses than PEI |
